Here are results for three molecules from publication PMC12454603 (Archives of Toxicology, 2025).

Each structure is given as a SMILES string. Where “and” joins values, the source holds several entries; their conditions need not be identical. Identical values can stand only once. Entries after “also recorded” stand apart in the source; their conditions may differ. Like-named read-outs stand apart in the source and are kept apart here.

Series [1] relates to ES-D3 cells. Briefly: ES-D3 cell cytotoxicity (WST-1 viability) assay of the mEST. It counts as cell-based, mouse. As to the method: The viability of the ES-D3 cells following 1-day and 5-day exposure to the test compounds was measured with the WST-1 assay. To this end, 100 µL cell suspension was seeded in the inner 60 wells of 96-well plates at a concentration of 2 × 10^5 cells/ml for 1-day exposure and 10^4 cells/ml for 5-day exposure and incubated at 37 °C with 5% CO2 for 24 h. After 24 h, 100 µL exposure medium with 0.25% DMSO and the required concentration of the test compounds, solvent control, and positive control were added to the cells in triplicate. The plates were incubated at 37 °C with 5% CO2 for 1 day or 5 days until measurement. After the exposure period, 20 µL of the cell proliferation reagent WST-1 were added to each well that contained cells and the cells were incubated for 3 h at 37 °C with 5% CO2. The absorbance of each plate was measured at 440 nm and 620 nm with a SpectraMax iD3 (San Jose, USA).
(§1) The concentration–response data for the test compounds in the mEST were presented in three curves including curves for 1-day cytotoxicity, 5-day cytotoxicity, and 10-day differentiation assays. The obtained curves were fitted using the inhibition equation log (inhibitor) vs response (three parameters) option using GraphPad Prism software 5.0 (California, USA).
In general terms: Tetrazolium assays rely on reduction of a dye to a coloured formazan, in cell work by metabolically active cells.

The nature of series [2]: In vivo kinetic study, intravenous 50 mg/kg bw, blood concentrations. As to conditions: rat, 50 mg/kg bw parent PAH. How it is done: Six male Sprague–Dawley rats at the age of 8–9 weeks weighing 286-305g/rat were obtained from Charles River Inc (Beijing, China). The rats were maintained in plastic cages in two groups of three in a temperature-controlled (ranging from 20 °C to 25 °C) and humidity-controlled (ranging from 40–70%) environment on a 12-h light–dark cycle. The animal bedding was corncob and used after autoclaving. The bedding and the cages were changed twice a week. The number of animals was restricted to 3 per dose group and control blood samples were collected before dosing. Feeding and living conditions followed the Chinese Laboratory Animal-Requirement of environment and housing facilities (GB14925-2010). The present rat study was approved by Institutional Animal Care and Use Committee (IACUC-BF202305006).
All animals were fasted 8 h before intravenous injection and resumed feed supply 4 h after dosing.
After administration, blood samples (0.1–0.2 ml blood volume) were taken from the medial canthus venous plexus of the animal and anticoagulated with sodium heparin. Prior to orbital venipuncture and blood collection, the animals were anesthetized by CO2 inhalation (70% CO2 + 30% O2). Blood was sampled at 1 min, 0.5, 1, 2, 4, 8, 12, 24, 32, 48, and 72 h post-dosing. After collection, blood samples were frozen and were stored at −20 °C until analysis. All animals were euthanized with 100% CO2 after the experiment.
Aliquots of 100 µL of blood samples were transferred into centrifuge tubes and 700 µL sodium acetate buffer (0.1M, pH 5.0) and 6 µL β-glucuronidase-arylsulfatase were added. The samples were incubated for 1 h at 37 °C and subsequently extracted twice with 800 µL ethyl acetate saturated with water. The samples were shaken for 30 min and centrifuged 5 min at 2000 g (4 °C). The upper organic phase was transferred to a centrifuge tube and evaporated under a gentle stream of nitrogen at 40 ℃ in a water bath. The residues were re-dissolved with 200 µL ascorbic acid:methanol (1:100). […]

The subject of series [3] is ES-D3 cells (differentiation into contracting cardiomyocytes). Briefly: ES-D3 cell differentiation assay of the mouse embryonic stem cell test (mEST). The class given is cell-based. Conditions: for IC50: Mus musculus, Cardiomyocyte, 240 h, read-out: IC50 for inhibition of differentiation of ES-D3 cells into beating cardiomyocytes; for Outcome in the differentiation assay of the mEST: parent PAH tested without bioactivation. As to the method:
The developmental toxicity of the test compounds was assessed by the inhibitory effect on the differentiation of cells of the ES-D3 cell line into contracting cardiomyocytes. The assay was performed essentially as previously described (Kamelia et al. [2020]). The cells were cultured on the lid of a 96-well plate in 45 hanging drops (volume 20 µL/drop) at a concentration of 37,500 cells/ml. The 96 wells were filled with 250 µL PBS to maintain the humidity. Sterile Eppendorf lids were placed at the corners of the 96-well plate to prevent the hanging drops from contacting the 96-well plate. The plates were sealed with micropore tape and incubated at 37 °C with 5% CO2 in a humidified atmosphere for 72 h. After 72 h, 5 ml exposure medium was prepared for each concentration of each test compound with 0.25% DMSO in a 60 × 15 mm petri dish. The formed embryonic bodies (EBs) in the hanging drops on the lid of the 96-well plate were washed off with exposure medium and collected in the petri dish. The Petri dish was subsequently incubated at 37 °C with 5% CO2 in a humidified atmosphere for 48 h. After 48 h, the EBs were transferred to a 24-well plate filled with 1 ml exposure medium per well. Each well contained 1 EB. The 24-well plates were incubated at 37 °C with 5% CO2 in a humidified atmosphere for 120 h. The number of EBs with contracting cardiomyocytes and the undifferentiated EBs were counted under a microscope. In the solvent (DMSO) control, the presence of more than 21 EBs with contracting cardiomyocytes out of 24 EBs indicates a valid assay. In each experiment, 0.5 µM (0.065 µg/ml) 5-FU was used as a positive control. The result of the differentiation assay is expressed as the fraction of differentiated EBs of the total number of EBs.
as §1

Series [4] deals with P450 enzymes in rat liver microsomes. Briefly: P450-mediated oxidative metabolism of 8-MBaP/BaP in rat liver microsomes. It counts as in vitro ADME. As to the method: 3-OH-8-MBaP was subsequently modeled to be conjugated by glucuronidation and sulfation in the liver. The kinetic constants for these conjugation reactions were determined in incubation experiments described in Sect. […] The scaling factors from rat liver microsomes and rat liver S9 to the whole liver were 45 mg microsomal protein/g liver and 125 mg S9 protein/g liver, respectively (Houston and Galetin [2008]).
For orientation: Microsomes from liver hold many membrane-bound enzymes, among them those of drug oxidation.

The test system is the same in series [5]. More on the design: method as in Wang et al. 2022. As to conditions: cited from earlier work.
Series [6] concerns rats. More on the design: method as in Archibong et al. 2002. Conditions: rat; derived from reported in vivo dose–response data; ref Archibong et al. 2002; cited from earlier work.
On the set-up of series [7]: method as in Sun et al. 2002. Conditions: 8-MBaP assumed to be the same as BaP; ref Sun et al. 2002; cited from earlier work.
Series [8] concerns rats. Kind of series: PBK modeling-facilitated reverse dosimetry (QIVIVE) of mEST data to predict developmental toxicity. Conditions: rat. As to the method: The relationship between the in vivo 3-OH-8-MBaP concentration in maternal blood (C in vivo) and the in vitro 3-OH-8-MBaP concentration in the mEST (Cin vitro) was described by the following Eq. (2): 2 Cinvivo∗fub,invivo=Cinvitro∗fub,invitro
The fraction unbound in blood (fub, in vivo) of 3-OH-8-MBaP was calculated as 0.004 (Table 2) based on the methodology mentioned in Sect. “PBK model for 8-MBaP in rats”. The fraction unbound in the mEST (fub, in vitro) was assumed to be half of the fub, in vivo based on the ratio between the protein content in rat blood plasma (7.5%) and the mEST assay medium (15%). The unbound concentration in vitro (Cub, in vitro) inducing the developmental toxicity response in mEST was converted using Eq. (2) to an unbound concentration in blood (Cub,in vivo) that was further converted by the PBK model to a predicted oral dose.

In series [9] the test system is rats. More on the design: method as in Wang et al. 2021. As to conditions: rat, oral exposure, previously predicted dose–response curve; ref Wang et al. 2021; cited from earlier work.
The mark [10] stands for this setting: scaled to whole liver, liver weight 9.1 g.
Setting [11] is: scaled with 45 mg microsomal protein/g liver.

One may read the IC50 as the point on the concentration scale where inhibition reaches its midpoint. Broadly, the Km is the concentration of substrate that gives half-maximal velocity.

As for `Oc1ccc2ccc3c4ccccc4cc4ccc1c2c43` [3-OHBaP, 3-hydroxy-benzo[a]pyrene, reference compound], the “Cytotoxicity accompanying the inhibition of differentiation” value in series [1] (1-day and 5-day cytotoxicity, ES-D3 cells) was “non-cytotoxic concentrations”. The “Observed in vivo Cmax relative to the model prediction (lower)” value in series [2] is 2.6 fold. Besides, the IC50 in [3] was determined as 1.51 µM.
For the molecule `Cc1ccc2c(c1)cc1ccc3cccc4ccc2c1c34` [8-MBaP, 8-methyl-benzo[a]pyrene], the “Scaled Vmax, 8-MBaP to 3-OH-8-MBaP” value in [4] (setting [10]) amounted to 2 µmol/h/liver; in series [4] (setting [11]), 0.19 µmol/h/g liver. Besides, the “Scaled Vmax, 8-MBaP to other metabolites” value amounted to 11 µmol/h/liver in [4] (setting [10]) and 1.18 µmol/h/g liver in series [4] (setting [11]). Further, the 50% inhibitory concentration (IC50) in [1] (Mus musculus, 120 h, 5-day exposure, WST-1, read-out: IC50 for reduction of cell viability on Day 5) was found to be 1.74 µM; in series [3] it was 0.83 µM. Further, the “Outcome in the differentiation assay of the mEST” value in series [3] is given as “negative”. In addition, the Michaelis-Menten constant (Km) in series [5] (read-out: Km, 8-MBaP to 3-OH-8-MBaP, ref Wang et al. 2022, listed as 8MBaP) is 12 µM; in [5] (read-out: Km, 8-MBaP to 3-OH-8-MBaP, ref Wang et al. 2022) it was 11.6 µM; in series [5] (read-out: Km, 8-MBaP to other metabolites, sum of other metabolites, ref Wang et al. 2022, listed as 8MBaP), 8 µM; in [5] (read-out: Km, 8-MBaP to other metabolites, sum of other metabolites, ref Wang et al. 2022) it was 8.07 µM. Also, the “Vmax, 8-MBaP to 3-OH-8-MBaP” value in [5] (ref Wang et al. 2022) is 0.07 nmol/min/mg microsomal protein and 0.07^a nmol/min/mg microsomal protein. Besides, the “Vmax, 8-MBaP to other metabolites” value in [5] (sum of other metabolites, ref Wang et al. 2022) was 0.43 nmol/min/mg microsomal protein and 0.43^a nmol/min/mg microsomal protein.
Consider `c1ccc2c(c1)cc1ccc3cccc4ccc2c1c34` [BaP, benzo[a]pyrene], for which the “ED50 for developmental toxicity, in vivo toxicity study” value in series [6] is listed as 10.8 mg/kg bw. In addition, the “Permeability coefficient (Papp), apparent intestinal permeability in vivo” value in [7] is recorded as 0.02 dm/hr. Also, in series [8] (oral, versus Wang et al. 2021), the “Predicted ED50 of BaP (present study) relative to previously predicted ED50 of BaP (lower)” value is recorded as 0.9 fold. Also, the “Predicted ED50 of BaP (present study) relative to ED50 from the reported in vivo study (higher)” value in series [8] (versus Archibong et al. 2002) is 1.3 fold. Further, in series [9], the “ED50 for developmental toxicity, model prediction” value is 15.1 mg/kg bw. Further, the “Outcome in the differentiation assay of the mEST” value in series [3] was “inactive; also recorded: negative”.
